Experiments:
Assay in all cases: Cell viability MTS assay
Format in all cases: cell-based, human
A549 = tested on: A549
Protocol: (§1) Cell viability was determined by measuring the activity of dehydrogenase enzymes in metabolically active cells using a tetrazolium compound, MTS. The assay was performed as described in Promega Technical Bulletin No. 169 (CellTiter 96 Aqueous Non-Radioactive Cell Proliferation Assay). Thirteen human cancer cell lines were assayed (see, e.g., Table 1). Cells were maintained at 37° C., 5% CO2. Adherent cells were maintained DMEM media (4.5 g/L glucose) supplemented with 15% heat-inactivated FBS, 10 mM L-glutamine, and 10 mM Hepes pH 7.5. Suspension cells were maintained in RPMI 1640 media, supplemented with 10% heat-inactivated FBS and 10 mM Hepes pH 7.5. Briefly, cells were seeded in 96-well plates as set forth in Table 1 and incubated for 16-24 hours. Candidate compounds were serially diluted in DMSO, further diluted in cell culture media, and then added to cells (final DMSO concentration of 0.33%). Cells were incubated in the presence of candidate compound for 72 hours. MTS stock solution (MTS 2 gm/L, PMS […] in PBS) was added to the cells (final concentration MTS […] and PMS 7.67 mg/L) and incubated for 4 hours. SDS was added to a final concentration of 1.4% and absorbance at 490 nm was measured within two hours using a platereader. The IC50 was defined as the concentration of compound that results in a 50% reduction in the number of viable cells as compwered to control wells treated with DMSO only (0.33%) and was calculated using non-linear regression analyswas. IC50 values were given in Table 2 for the compounds listed.

DU-145 = tested on: DU-145
Protocol: as §1

HCT-116 = tested on: HCT-116
Protocol: as §1

HT29 = tested on: HT29
Protocol: as §1

K562 = tested on: K562
Protocol: as §1

MCF7 = conditions: Homo sapiens, MCF7, 72 hours with compound
Protocol: as §1

MDA-MB-231 = conditions: Homo sapiens, MDA-MB-231, 72 hours with compound
Protocol: as §1

PC-3 = conditions: Homo sapiens, PC-3, 72 hours with compound
Protocol: as §1

SK-MEL-28 = conditions: Homo sapiens, SK-MEL-28, 72 hours with compound
Protocol: as §1

SKOV-3 = conditions: Homo sapiens, SK-OV-3, 72 hours with compound
Protocol: as §1

NCI-H69 = conditions: 72 hours with compound
Protocol: as §1

[1] = Homo sapiens, A549, 72 hours with compound
[2] = Homo sapiens, DU-145, 72 hours with compound
[3] = Homo sapiens, HCT-116, 72 hours with compound
[4] = Homo sapiens, HT-29, 72 hours with compound
[5] = Homo sapiens, K562, 72 hours with compound

Molecule	IC50 (A549; 72 hours with compound) [µM]	IC50 (DU-145; 72 hours with compound) [µM]	IC50 (HCT-116; 72 hours with compound) [µM]	IC50 (HT29; 72 hours with compound) [µM]	IC50 (K562; 72 hours with compound) [µM]	IC50 (A549; [1]) [µM]	IC50 (DU-145; [2]) [µM]	IC50 (HCT-116; [3]) [µM]	IC50 (HT29; [4]) [µM]	IC50 (K562; [5]) [µM]	IC50 (MCF7) [µM]	IC50 (MDA-MB-231) [µM]	IC50 (PC-3) [µM]	IC50 (SK-MEL-28) [µM]	IC50 (SKOV-3) [µM]	IC50 (NCI-H69) [µM]
3-(5,6-Dihydro-4H-pyrrolo[3,2,1-ij]quinolin-1-yl)-4-(2,6-dichloro-phenyl)-pyrrole-2,5-dione [Example 20]	38.8	31.1	4.96	> 100	2.47	–	–	–	–	–	–	–	–	–	–	–
COc1ccc(OC)c([C@H]2C(=O)NC(=O)[C@H]2c2cn3c4c(cccc24)CCC3)c1 (racemic) [Example 53, (±)-Cis-3-(5,6-dihydro-4H-pyrrolo[3,2,1-ij]quinolin-1yl)-4-(2,5-dimethoxyphenyl)-pyrrolidine-2,5-dione]	–	–	–	–	–	> 100	> 100	> 100	> 100	36.3	> 100	> 100	> 100	> 100	57.4	–
O=C1NC(=O)[C@@H](c2cn3c4c(cccc24)CCC3)[C@H]1c1ccc(F)cc1Cl (racemic) [Example 54, (±)-Cis-3-(5,6-dihydro-4H-pyrrolo[3,2,1-ij]quinolin-1yl)-4-(2-chloro-4-fluoro-phenyl)-pyrrolidine-2,5-dione]	–	–	–	–	–	22.1	21.1	7.63	8.78	3.37	> 100	–	11.5	25.2	6.88	–
O=C1NC(=O)[C@@H](c2cn3c4c(cccc24)CCC3)[C@H]1c1cccc(Cl)c1 (racemic) [Example 55, (±)-Cis-3-(5,6-dihydro-4H-pyrrolo[3,2,1-ij]quinolin-1yl)-4-(3-chlorophenyl)-pyrrolidine-2,5-dione]	–	–	–	–	–	13.1	35.7	12.1	13.1	3.47	> 100	15.5	12.9	> 100	11.6	–
CN1C(=O)[C@H](c2cn(C)c3ccccc23)[C@H](c2cn3c4c(cccc24)CCC3)C1=O (racemic) [Example 61, (±)-cis-3-(5,6-dihydro-4H-pyrrolo[3,2,1-ij]quinolin-1-yl)-4(1-methylindol-3-yl)-1-methylpyrrolidine-2,5-dione]	–	–	–	–	–	78.9	> 100	96.2	> 100	18.7	> 100	> 100	> 100	> 100	37.6	–
O=C1NC(=O)C(c2cn3c4c(cccc24)CCC3)=C1c1cccc2ccccc12 [Example 19, 3-(5,6-Dihydro-4H-pyrrolo[3,2,1-ij]quinolin-1-yl)-4-naphthalene-1-yl-pyrrole-2,5-dione]	–	–	–	–	–	41	> 100	26.2	46.8	14	> 100	70.5	96.2	39.6	36.2	–
O=C1NC(=O)C(c2cn3c4c(cccc24)CCC3)=C1c1c(Cl)cccc1Cl [Example 20, 3-(5,6-Dihydro-4H-pyrrolo[3,2,1-ij]quinolin-1-yl)-4-(2,6-dichloro-phenyl)-pyrrole-2,5-dione]	–	–	–	–	–	–	–	–	–	–	> 100	50.3	82.7	74	23.8	–
O=C1NC(=O)C(c2cn3c4c(cccc24)CCC3)=C1c1ccccc1Br [Example 21, 3-(5,6-Dihydro-4H-pyrrolo[3,2,1-ij]quinolin-1-yl)-4-(2-bromo-phenyl)-pyrrole-2,5-dione]	–	–	–	–	–	28.6	21.8	5.44	56.8	6.42	> 100	30	22.2	> 100	30.2	–
(±)-Trans-3-(5,6-dihydro-4H-pyrrolo[3,2,1-ij]quinolin-1yl)-4-(N-methylindol-3-yl)pyrrolidine-2,5-dione [Example 51]	–	–	–	66.8	–	–	–	–	–	–	–	–	–	–	–	37.7

— patent publication US7713969B2, “Compositions and methods for treatment of cancer” (ArQule, Inc., priority 2005, dated 2010)
